Consider 13 compounds from PubChem BioAssay (NCI).

SMILES strings stand for the structures. Several values for one entry are separate records, joined by “and”; a condition that tells them apart may be missing. Equal entries are not always repeated.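 Tested at 5 concentrations; 48 h exposure; 96-well plates; endpoints linearly interpolated, else capped at highest concentration. GI50: concentration for 50% inhibition of growth. TGI denotes the concentration required for complete inhibition of growth.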

Some test systems named below: RXF 393 renal; OVCAR-4 ovarian; 786-0 renal; OVCAR-5 ovarian; SK-MEL-2 melanoma; DU-145 prostate; HT29 colon.
Common to all, as to assay: NCI anticancer screen, dose series, 48 h

Regarding `CON(C)C(=O)N1N=C(c2cc(F)ccc2F)SC1(CCCN)c1ccccc1` (configuration not stated), the GI50 in the test with RXF 393 renal is below 0.01 µM; with OVCAR-4 ovarian, 4.27 µM and 3.37 µM; with 786-0 renal, 0.0574 µM and < 0.01 µM; with OVCAR-5 ovarian, 0.0576 µM and < 0.01 µM; with SK-MEL-2 melanoma it was below 0.01 µM; in the test on DU-145 prostate it was 0.0336 µM and < 0.01 µM. In the test with HT29 colon, the GI50 was 0.0301 µM and < 0.01 µM. The TGI was 0.756 µM with RXF 393 renal; 24.9 µM and 24.8 µM in the test with OVCAR-4 ovarian; 18.1 µM and 18.5 µM in the test on 786-0 renal; 15.1 µM and 15.8 µM with OVCAR-5 ovarian; 0.561 µM in the test on SK-MEL-2 melanoma; 11.8 µM and 11.3 µM with DU-145 prostate. In addition, the TGI with HT29 colon is 5.05 µM and 10.8 µM.

Regarding `O=C(/C(=C/c1cccc([N+](=O)[O-])c1)c1ccccc1)c1ccccc1`, the GI50 in the test on RXF 393 renal was 3.39 µM; in the test on OVCAR-4 ovarian, 4.26 µM; in the test with 786-0 renal, 4.8 µM; with OVCAR-5 ovarian, 5.56 µM; in the test on DU-145 prostate, 4.22 µM; in the test with HT29 colon, 3.24 µM. In addition, the TGI worked out at 9.06 µM with RXF 393 renal; 16 µM with OVCAR-4 ovarian; 18.3 µM with 786-0 renal; 25.8 µM in the test on OVCAR-5 ovarian; 14.7 µM in the test with DU-145 prostate; 8.83 µM with HT29 colon.

As for `CO[C@H]1C=C[C@@]23c4cc5c(cc4CO[C@]2(O)CN(C)[C@H]3C1)OCO5`, the TGI in the test with OVCAR-4 ovarian, in the test on 786-0 renal, in the test on OVCAR-5 ovarian, in the test with SK-MEL-2 melanoma, in the test with DU-145 prostate and with HT29 colon was above 100 µM each time.

For `CC[C@H](C)[C@H]1O[C@]2(C=C[C@@H]1C)C[C@@H]1C[C@@H](C/C=C(\C)[C@@H](O[C@H]3C[C@H](OC)[C@@H](O[C@H]4C[C@H](OC)[C@@H](NC)[C@H](C)O4)[C@H](C)O3)[C@@H](C)/C=C/C=C3\CO[C@@H]4[C@H](O)C(C)=C[C@@H](C(=O)O1)[C@]34O)O2`, the GI50 in the test with RXF 393 renal is 2.03 µM; with OVCAR-4 ovarian, 3.3 µM; in the test on 786-0 renal, 1.26 µM; in the test with OVCAR-5 ovarian, 3.41 µM; with SK-MEL-2 melanoma it was 2.54 µM; in the test on HT29 colon, 1.88 µM. Besides, the TGI in the test with RXF 393 renal was determined as 4.47 µM; with OVCAR-4 ovarian it was 13.4 µM; in the test on 786-0 renal, 2.94 µM; with OVCAR-5 ovarian it was 14.9 µM; with SK-MEL-2 melanoma, 7.07 µM; in the test on HT29 colon, 4.14 µM.

As for `CC(C)CCCC(=O)CCCCCCC(=O)CCN(O)C(=O)C(N)CO` (configuration not stated), the TGI was 27.4 µM in the test on RXF 393 renal; 36.2 µM with 786-0 renal; 50.6 µM in the test on OVCAR-5 ovarian; 39.5 µM in the test with SK-MEL-2 melanoma; 37.4 µM with DU-145 prostate; 43.5 µM in the test with HT29 colon.

`COc1cc2c(c(OC)c1OC)C(=O)[C@@H]1c3ccc([N+](=O)[O-])cc3C(=O)N(CCCBr)[C@H]21`: the GI50 was 17.1 µM in the test on OVCAR-4 ovarian; 12.5 µM in the test with 786-0 renal; 31 µM in the test on OVCAR-5 ovarian; 19.7 µM with SK-MEL-2 melanoma; 14.6 µM with DU-145 prostate; 14.2 µM in the test on HT29 colon. The TGI with OVCAR-4 ovarian was 64.2 µM; with 786-0 renal, 33.1 µM; in the test with OVCAR-5 ovarian, 91.9 µM; in the test with SK-MEL-2 melanoma, 59.8 µM; with DU-145 prostate it was 53.2 µM; in the test on HT29 colon it was above 100 µM.

For `COc1ncc(-c2ccc3ncnc(Nc4cccc(Cl)c4)c3c2)cc1NS(=O)(=O)CCN1CCOCC1`, the values for the GI50 in the test with OVCAR-4 ovarian, with 786-0 renal and in the test with DU-145 prostate were 1.14 µM, 0.298 µM and 0.297 µM, respectively. The TGI in the test with OVCAR-4 ovarian, in the test with 786-0 renal and in the test with DU-145 prostate was above 100 µM in each case.

For the compound `COc1ccc2nc3cc(Cl)ccc3c(NCCN)c2c1`, the GI50 is 1.61 µM in the test with OVCAR-4 ovarian, 1.63 µM in the test with 786-0 renal, 14.5 µM with SK-MEL-2 melanoma and 1.53 µM in the test on DU-145 prostate. For the same compound, the TGI in the test on OVCAR-4 ovarian worked out at 3.02 µM; in the test on 786-0 renal it was 3.05 µM; in the test on SK-MEL-2 melanoma it was 31.2 µM; with DU-145 prostate it was 2.92 µM.

`CC[CH2][Sn]([Cl])([Cl])[CH2]CC.Oc1ccccc1C=NCCN=Cc1ccccc1O`: the GI50 was 2.41 µM in the test on RXF 393 renal; 8.21 µM in the test with OVCAR-4 ovarian; 7.91 µM in the test on 786-0 renal; 12.9 µM in the test with OVCAR-5 ovarian; 12.1 µM with DU-145 prostate. For the same compound, the TGI with RXF 393 renal is 8.11 µM; with OVCAR-4 ovarian it was 21 µM; in the test on 786-0 renal it was 20.7 µM; in the test with OVCAR-5 ovarian, 26 µM; with DU-145 prostate it was 24.6 µM.

As to `NCCCn1c2c(c3ccc([N+](=O)[O-])cc3c1=O)C(=O)c1cc(Br)ccc1-2`, the GI50 in the test on RXF 393 renal is 0.318 µM; with OVCAR-4 ovarian, 0.102 µM; in the test on 786-0 renal it was 0.0435 µM and 0.0643 µM; with OVCAR-5 ovarian, 0.197 µM and 0.14 µM; with DU-145 prostate, 0.00205 µM; with HT29 colon, 0.00556 µM. Further, the TGI is 0.173 µM and 0.387 µM in the test with 786-0 renal; 0.409 µM and 0.688 µM in the test on OVCAR-5 ovarian; 0.00873 µM and 0.0121 µM in the test on DU-145 prostate; 0.134 µM in the test with HT29 colon.

As for `COc1cc2c3c(n(CCCCOC(=O)C(Cl)(Cl)Cl)c(=O)c2cc1OC)-c1cc2c(cc1C3=O)OCO2`, the GI50 was above 100 µM in the test on OVCAR-4 ovarian; 17.2 µM with 786-0 renal; above 100 µM with OVCAR-5 ovarian; above 100 µM in the test with SK-MEL-2 melanoma; 20.4 µM with DU-145 prostate; above 100 µM in the test with HT29 colon. The TGI in the test on OVCAR-4 ovarian is above 100 µM; in the test on 786-0 renal, 41.3 µM; with OVCAR-5 ovarian, above 100 µM; with SK-MEL-2 melanoma, above 100 µM; in the test on DU-145 prostate, above 100 µM; with HT29 colon it was above 100 µM.

Regarding `COc1ccc(-c2nnc(COc3ccc(NC(=O)Nc4ccc(Cl)c(C(F)(F)F)c4)cc3F)o2)cc1`, the GI50 with OVCAR-4 ovarian was 2.93 µM; in the test with 786-0 renal it was 3.24 µM; in the test on OVCAR-5 ovarian, 10.9 µM; in the test on SK-MEL-2 melanoma, 3.61 µM; with DU-145 prostate, 3.1 µM; in the test on HT29 colon it was 3.57 µM. The TGI in the test with OVCAR-4 ovarian was found to be 13.7 µM; in the test on 786-0 renal, 12 µM; with OVCAR-5 ovarian, 71.4 µM; in the test with SK-MEL-2 melanoma it was 9.87 µM; in the test with DU-145 prostate it was 11.1 µM; in the test on HT29 colon, 22.4 µM.

Regarding `COC(=O)C12C3C4C1C1C2C3C41NC(=O)c1csc([C@@H](C[C@H](C(C)C)N(C)C(=O)[C@@H](NC(=O)[C@H]2CCCCN2C)C2CC2)OC(C)=O)n1` (some centres not stated), the GI50 in the test with OVCAR-4 ovarian was 0.5 µM; in the test with 786-0 renal, 0.088 µM; with OVCAR-5 ovarian, 0.294 µM; in the test on SK-MEL-2 melanoma, 0.11 µM; in the test with DU-145 prostate, 0.00671 µM; with HT29 colon it was 0.00658 µM. Further, the TGI in the test on OVCAR-4 ovarian, in the test with 786-0 renal, in the test with OVCAR-5 ovarian, in the test with SK-MEL-2 melanoma, in the test with DU-145 prostate and in the test with HT29 colon was above 33.3 µM in each case.
